Results taken from patent publication US20160263140A1, “USE OF COMPOUNDS ACTIVATING SIRT-3 FOR MIMICKING EXERCISE” (President and Fellows of Harvard College, priority 2007, published 2016).
“Also recorded” adds a separate entry of the source.

Experiments:
HEK293 cells [1] = test: Cell death assay after MMS treatment (FACS, propidium iodide); type: cell-based; conditions: for effect on Nampt-mediated cell protection/survival against MMS: HEK293 cells stably overexpressing Nampt, MMS treatment, sirtinol 100 μM
Description: Human embryonic kidney (HEK293) and human fibrosarcoma HT1080 cell lines were obtained from ATCC and grown in complete DMEM medium with 10% FBS and 100 μg/ml penicillin/streptomycin. To generate Nampt overexpression or empty vector stable clones, hNAMPT/pcDNA or pcDNA empty vector were transfected into HEK293 or HT1080 cells and selected with 0.5-1.0 mg/ml geneticin. To generate Nampt knockdown cells, siRNA/NAMPT/pMSCV or pMSCV empty vector were transfected into HT1080 cells, and stable clones were selected with 500 ng/ml puromycin. Primary neonatal rat cardiomyocytes were prepared as described previously (Matsui et al., 1999). Isolated cardiomyocytes were grown in complete medium (RPMI 1640, 5% fetal calf serum, 10% horse serum) to 80% confluence before cells were subjected to hypoxia and/or serum starvation. For hypoxia, medium was changed to RPMI 1640 with or without serum saturated with 95% N2/5% CO2 and then cells were placed in a 37° C. airtight box saturated with 95% N2/5% CO2 for 18 hours. O2 concentrations were <0.1% (Ohmeda oxygen monitor, type 5120). To serum starve HT1080, cells were grown in DMEM medium containing no serum. Cells were harvested after 26 h of serum starvation and Nampt expression was analyzed by Western blotting.
(§1) HEK293 and HT1080 cells at less than 85% confluency were treated with MMS (1.2 mM) for 6-8.5 h and 8-17 h, respectively. Transiently transfected cells were washed 3 times with PBS to remove residual transfection reagents before treating with MMS. HEK293 cells and HT1080 cells were exposed to etoposide for 72 h or 46 h, at 120 or 40 μM, respectively. HT1080 cells were exposed to camptothecin at 14 μM for 23 h. After drug treatments, cells were harvested by trypsinization, pelleted by centrifugation and resuspended in PBS containing 3% FBS. Cell death was analyzed by FACS using propidium iodide (PI) staining. Cells transiently-transfected with mNAMPT/MSCV, SIRT1-7 siRNA, Nmnat-3, or hMFT siRNA oligos and co-transfected with FAM-labeled scrambled siRNA oligos, percent cell death was determined by as the proportion of PUGFP or PIFAM positive cells versus the total number of cells with green fluorescence.

[2] = test system: mitochondria from fresh rat livers; test: NAD+ levels in isolated liver mitochondria by HPLC-MALDI-MS; conditions: for change of mitochondrial NAD+ levels (in words): FK866 10 nM and/or MMS 1:1000, 30 min at 37° C.
Description: Unless otherwise stated, fractionation of cultured cells was performed using a differential centrifugation and sucrose gradient procedure with slight modifications (Schwer et al., 2002). For drug treatment of mitochondria, fresh mitochondria were obtained from livers excised from fed young male rats. Half of the liver homogenate was used for mitochondrial isolation using a commercially available kit as described by manufacturer's instructions, designated Protocol 1 (Pierce Mitochondrial Isolation kit, Rockford, Ill.). The other half of the original homogenate was subjected to a differential centrifugation protocol to isolate mitochondria (Protocol 2). Mitochondria (500 μl) were added to a 48-well plate and treated with methylmethane sulfonate (MMS) at 1:1000 dilution and/or FK866 (10 nM) for 30 min at 37° C. Suspensions were spun down for 1 min at 14,000 rpm at 4° C. and pellets were stored at −80° C. prior to NAD^+ analysis by HPLC-MALDI-MS. Detailed protocols are described in Supplemental Information.
NAD^+ was determined by as described previously (Sauve and Schramm, 2003), with the following modifications. HEK293 or HT1080 cells were harvested by trypsinization and counted by haemocytometer. NAD^+ was extracted from whole cells or mitochondrial pellets by adding 10% perchloric acid and sonicating for 5 min on ice. The reference standard ^18O-NAD^+ (typically […]) was then added to the sample. After mixing well, samples were centrifuged for 3 min then neutralized with NaOH. NAD^+ in the supernatant (100 μL sample) was separated from other cellular components by HPLC. NAD^+ peaks were collected according to the standards' retention time and dried with a lyophilizor. […] The volume of mitochondrial pellets was calculated by considering the density of the mitochondria pellets to be 1.0 μL/mg. Total cellular NAD^+ concentrations were calculated by dividing the quantity of NAD^+ per cell by the mean cell volume (MCV) as measured by a Coulter counter, which for HT1080 was […] and for HEK293 was […]. […]

HEK293 cells [3] = test: Total cellular NAD+ by HPLC-MALDI-MS after MMS; type: cell-based, human; conditions: 1.2 mM MMS, 2 and 4 h, irrespective of Nampt levels
Description: as §1
NAD^+ was determined by as described previously (Sauve and Schramm, 2003), with the following modifications. HEK293 or HT1080 cells were harvested by trypsinization and counted by haemocytometer. NAD^+ was extracted from whole cells or mitochondrial pellets by adding 10% perchloric acid and sonicating for 5 min on ice. […] The volume of mitochondrial pellets was calculated by considering the density of the mitochondria pellets to be 1.0 μL/mg. […]

AMPK = AMPK phosphorylation in C2C12 myotubes (Western blot); type: cell-based, murine; conditions: 40 μM, 3-hour treatment; vector- and SIRT3-transfected C2C12 myotubes
Description: (§2) C2C12 myocytes and BOSC23 cells were cultured in Dulbecco's modified Eagle's medium containing 10% bovine calf serum. For C2C12 differentiation, at confluence, cells were incubated in Dulbecco's modified Eagle's medium with 2% horse serum (Hyclone, Logan, Utah) for three days. Inhibition of AMPK in selected studies was achieved by adding compound C (6-[4-(2-Piperidin-1-yl-ethoxy)-phenyl)]-3-pyridin-4-yl-pyrrazolo[1,5-a]-pyrimidine, Merck) (31) to the media for 3 hours at a final concentration of 40 μM. […]

GLUT4 = GLUT4 protein expression in SIRT3-expressing C2C12 myotubes (Western blot); type: cell-based, murine; conditions: 40 μM, 3-hour treatment
Description: as §2

O=C1NCCc2c(OCCCCN3CCCCC3)cccc21 [DPQ, 3,4-dihydro-5-[4-(1-piperidinyl)butoxy]-1(2H)-isoquinolinone]
extent of MMS-induced cell death (HEK293 cells [1]; HEK293 cells, MMS, 30 μM DPQ): greatly reduced; also recorded: Attenuated

O=C(/C=C/c1cccnc1)NCCCCC1CCN(C(=O)c2ccccc2)CC1 [FK866]
change of mitochondrial NAD+ levels (in words) [2]: even larger decreases in mitochondrial NAD+ levels; also recorded: reduced
effect on Nampt-mediated cell protection/survival against MMS (HEK293 cells [1]): prevented cell protection by Nampt overexpression; also recorded: the effect is blocked

COS(C)(=O)=O [MMS, methylmethane sulfonate]
total NAD+ concentration after MMS treatment (HEK293 cells [3]): < 100 µM
change of mitochondrial NAD+ levels (in words) [2]: reduced
reduction of mitochondrial NAD+ levels ([2]; MMS 1:1000 dilution, 30 min at 37° C.): ~2 fold
cell death caused by MMS treatment (HEK293 cells [1]; 1.2 mM MMS, vector control cells): death of about half the vector control cells

c1cc(-c2cnn3cc(-c4ccc(OCCN5CCCCC5)cc4)cnc23)ccn1 [compound C]
AMPK phosphorylation (AMPK): decreased AMPK phosphorylation
ability of SIRT3 to increase GLUT4 protein expression (GLUT4): completely abolished

CC(NC(=O)c1ccccc1/N=C/c1c(O)ccc2ccccc12)c1ccccc1 (stereo not shown) [sirtinol]
effect on Nampt-mediated cell protection/survival against MMS (HEK293 cells [1]): did block the ability of Nampt overexpression to protect cells
